According to patent publication US7632930B2, “Oligosaccharide derivative” (Sankyo Company Limited, priority 2003, dated 2009):

Legend:
[1] = molecular target: T1, human pancreatic α-amylase (HPA) (Homo sapiens, UniProt P04746); test: α-Amylase inhibitory action (blue starch, Neo-Amylase Test); format: biochemical; conditions: final concentration required to inhibit the activity of the HPA solution by 50%; 37° C.
T1 construct: purchased International Reagents Caribzyme AMY
T1 sequence (P04746 16-511): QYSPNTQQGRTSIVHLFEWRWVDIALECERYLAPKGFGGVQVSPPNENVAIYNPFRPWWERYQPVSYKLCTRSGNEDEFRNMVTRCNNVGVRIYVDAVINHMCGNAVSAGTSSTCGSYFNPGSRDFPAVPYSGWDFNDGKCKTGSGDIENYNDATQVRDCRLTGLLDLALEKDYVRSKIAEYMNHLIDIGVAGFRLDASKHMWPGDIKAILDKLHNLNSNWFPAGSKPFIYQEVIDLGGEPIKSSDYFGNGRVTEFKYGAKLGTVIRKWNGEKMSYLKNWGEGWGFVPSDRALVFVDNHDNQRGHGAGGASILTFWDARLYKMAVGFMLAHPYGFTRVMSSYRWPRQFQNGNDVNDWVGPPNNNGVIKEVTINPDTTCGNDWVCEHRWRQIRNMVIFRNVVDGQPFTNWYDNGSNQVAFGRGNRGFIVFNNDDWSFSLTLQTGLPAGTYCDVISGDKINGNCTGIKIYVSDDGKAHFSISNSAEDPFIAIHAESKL

[2] = test system: genetically obese diabetic mice (C57BL/KsJ-db/db mice); test: Blood glucose lowering action in genetically obese diabetic mice; format: in vivo; conditions: 0.005% (w/w) in diet, freely ingested for 1 week, vs control group
Text: Commercially available, genetically obese diabetic mice (C57BL/KsJ-db/db mice, males, age 16 weeks at the time of testing, supplied by Clea Japan).
(§1) (2) Experimental Methods and Results
A test compound was mixed into a refined laboratory animal diet (carbohydrate content: 65.95% (w/w), Oriental Yeast) to a test compound concentration of 0.005% (w/w) and allowed to be freely ingested by diabetic mice for 1 week in groups of 5 mice per group. A control group was allowed similar unrestricted access to the same feed with the exception of not containing the test compound.
Blood glucose levels were measured before the start of dosing and one week after the start of dosing. Blood samples were collected from a tail vein and blood glucose levels were measured using a blood glucose analyzer (Glucoloader GXT, A & T) to calculate the blood glucose lowering rate (%) according to the following formula. Blood glucose lowering rate(%)=[1−(compound dose group blood glucose level/control group blood glucose level)]×100

normal mice (ddY mice) = test: Postprandial hyperglycemia inhibitory action (cornstarch loading); format: in vivo; conditions: ddY mice fasted 20 hours; oral 0.3 mg (test compound)/2 g (cornstarch)/kg; AUC of increase in blood glucose levels, 0.5-3 hours after dosing, vs control group
Method: Commercially available normal mice (ddY mice, males, age 8 weeks at the time of testing, supplied by Japan SLC).
as §1
For the dose group, a test compound and commercially available cornstarch were mixed well with 0.5% carboxymethyl cellulose to prepare a suspension that was orally administered at 0.3 mg (test compound)/2 g (cornstarch)/kg (body weight) to five mice that had been fasted in advance for 20 hours. The control group was administered with a similar suspension in the same manner with the exception of not containing the test compound.
Blood glucose levels were measured using a blood glucose analyzer (Glucoloader GXT, A & T). Inhibition rate(%)=[1−(dose group AUC/control group blood glucose increase AUC)]×100

IC50 [1] [nM]	SMILES	Blood Glucose Lowering Rate [2] [%]	Inhibition Rate (normal mice (ddY mice)) [%]
1590	C[C@H]1O[C@H](O[C@H]2[C@H](O)[C@@H](O)[C@@H](O[C@H]3[C@H](O)CN[C@@H]3CO)O[C@@H]2CO)[C@H](O)[C@@H](O)[C@@H]1O [Example 1, (2R,3R,4R)-4-Hydroxy-2-(hydroxymethyl)pyrrolidin-3-yl 4-O-(6-deoxy-α-D-glucopyranosyl)-α-D-glucopyranoside]	–	–
8480	C[C@H]1O[C@@H](O[C@H]2[C@H](O)[C@@H](O)[C@@H](O[C@H]3[C@H](O)[C@@H](CO)N[C@@H]3CO)O[C@@H]2CO)[C@H](O)[C@@H](O)[C@@H]1O [Example 7, (2R,3R,4R,5R)-2,5-Dihydroxymethyl-4-hydroxypyrrolidin-3-yl 4-O-(6-deoxy-β-D-glucopyranosyl)-α-D-glucopyranoside]	–	–
848	COC[C@H]1O[C@@H](O[C@H]2[C@H](O)[C@@H](O)[C@@H](O[C@H]3[C@H](O)CN[C@@H]3CO)O[C@@H]2CO)[C@H](O)[C@@H](O)[C@@H]1O [Example 8, (2R,3R,4R)-4-Hydroxy-2-hydroxymethyl-pyrrolidin-3-yl 4-O-(6-methoxy-6-deoxy-β-D-glucopyranosyl)-D-glucopyranoside]	–	–
9060	C[C@H]1O[C@H](O[C@H]2[C@H](O)[C@@H](O)[C@H](O[C@H]3[C@H](O)CN[C@@H]3CO)O[C@@H]2CO)[C@H](O)[C@@H](O)[C@@H]1O [Example 13, (2R,3R,4R)-4-Hydroxy-2-hydroxymethyl-pyrrolidin-3-yl 4-O-(6-deoxy-α-D-glucopyranosyl)-β-D-glucopyranoside]	–	–

The remaining lines, values behind:

SMILES	IC50 [1] [nM]	Blood Glucose Lowering Rate [2] [%]	Inhibition Rate (normal mice (ddY mice)) [%]
C[C@H]1O[C@@H](O[C@H]2[C@H](O)[C@@H](O)[C@@H](O[C@H]3[C@H](O)CN[C@@H]3CO)O[C@@H]2CO)[C@H](O)[C@@H](O)[C@@H]1O [Example 2, (2R,3R,4R)-4-Hydroxy-2-(hydroxymethyl)pyrrolidin-3-yl 4-O-(6-deoxy-β-D-glucopyranosyl)-α-D-glucopyranoside]	453	47	64
C[C@H]1O[C@H](O[C@H]2[C@H](O)[C@@H](O)[C@@H](O[C@H]3[C@H](O)[C@@H](O)[C@H](N)[C@@H]3CO)O[C@@H]2CO)[C@H](O)[C@@H](O)[C@@H]1O [Example 14, (1R,2S,3R,4R,5R)-1-Amino-2,3-dihydroxy-5-hydroxymethyl-cyclopent-4-yl 4-O-(6-deoxy-α-D-glucopyranosyl)-α-D-glucopyranoside]	2120	–	–
C[C@H]1O[C@@H](O[C@H]2[C@H](O)[C@@H](O)[C@@H](O[C@H]3[C@H](O)[C@@H](O)[C@H](N)[C@@H]3CO)O[C@@H]2CO)[C@H](O)[C@@H](O)[C@@H]1O [Example 15, (1R,2S,3R,4R,5R)-1-Amino-2,3-dihydroxy-5-hydroxymethyl-cyclopent-4-yl 4-O-(6-deoxy-β-D-glucopyranosyl)-α-D-glucopyranoside]	1270	–	–
